Test results published in patent US20100184809A1, “Heterocyclic FXR Binding Compounds” (PHENEX PHARMACEUTICALS AG, priority 2006, published 2010).
≈ marks a conversion by molar mass, not a printed value. Where two headings read alike, the source gives them in different places.

Legend:
[1] = Aqueous solubility assay, Protocol A, nephelometry method; format: physicochemical; conditions: PBS with 5% DMSO, aqueous with cosolvent or surfactant or cyclodextrin, kinetic from dmso stock, PBS pH 7.4, 5% DMSO
Procedure: Aqueous solubility of compounds was determined by nephelometry or by the shake-flask method as follows:
Protocol A, nephelometry method:
Solubility of compounds was measured in PBS (pH 7.4), 5% DMSO at 23° C. Nepheloskan Ascent (Thermo Electron Corporation) nephelometer was used for measurement of light scattering. Tested compounds were dissolved in DMSO to 10 mM. Prior to measurement the compounds were further diluted with PBS in the wells to final compound concentrations of 100, 70, 50, 35, 25, 17, 12 and <10 μg/ml.
The plates were incubated at room temperature for 24 hours to reach equilibrium and the scattered light was measured. Assay validation: Aqueous solubility of acetylsalicylic acid was determined to validate the assay.
The following compounds of Table 2 exemplify such solubility with “−−” meaning solubility<2 μM, “+” meaning 2 μM solubility 100 μM and “++” meaning solubility

[2] = Aqueous solubility assay, Protocol B, shake-flask method; format: physicochemical; conditions: aqueous buffer, 10 mM PBS buffer pH 7.4, 1% MeOH, room temperature, read-out: Aqueous solubility pH 7.4 (μM) (±standard deviation), shake-flask method
Procedure: Protocol B, shake-flask method:
Sample preparation: Sample and standard solution preparation is performed by mixing equal volumes of acetonitrile containing the internal standard (1 μM final concentration) with sample and calibration standard solutions (100 μl). After vigorously shaking (10 seconds) the samples are centrifuged (6000 g) for 5 minutes at 20° C. Aliquots of the particle-free supernatants are transferred to 200 μl sample vials and subsequently subjected to LC-MS/MS. Assay procedure: Test concentration was 100 μM in 10 mM PBS buffer pH 7.4 with a final MeOH concentration of 1%. The volume of the incubation solution was 500 μl. Depending on each compound's solubility in MeOH, the stock concentration and the incubation concentration was adapted. The test solutions in quadruplicates were shaken at 300 rpm over a 20 hours period at room temperature, followed by centrifugation at 20000 g for 30 minutes to separate the solid phase. 100 μl of particle free sample are added to 100 μl acetonitrile containing the internal standard. The aqueous solubility of the compounds was determined by measuring the concentration of the PBS buffer supernatant by HPLC-MS/MS.

PAMPA permeability assay = format: in vitro ADME; conditions: % of compound found in the receiver compartment after 16 hours; PBS pH 7.4, 5% DMSO, 23° C.
Procedure: Artificial membrane permeability was determined as follows: Tested compounds were dissolved to 10 mM in 100% DMSO. Permeability of compounds was measured in PBS (pH 7.4), 5% DMSO at 23° C. Safire (Tecan) plate reader was used for measurement the UV/Vis absorption. Protocol: Dilute stocks of tested compounds and controls with PBS to 1.67 mM and mix well by pipeitting, add 280 μl of PBS, 5% DMSO to acceptor plate, add 5 μl of 2% L-α-Phosphatidylcholine suspension in dodecane to the membrane of donor plate, Immediately add 98 μl of PBS to donor plate and make the sandwich with acceptor plate. Add 42 μl of tested compounds and controls dilutions to […], cover the plate, place into camera and incubate for 16 hours. Make the equilibrium plate, add 225 μl of PBS, 3,7% DMSO and 25 μl of tested compounds and controls dilutions to UV plate. After 16 hours pull the donor plate out and transfer 250 μl from acceptor plate to UV plate. Scan UV plate on Safire (Tecan) plate reader from […]. Permeability is reported in % of compound found in the receiver compartment after the incubation period.

[3] = Mouse microsomal stability assay; format: in vitro ADME; conditions: pH 7.4; mouse liver microsomes, 37° C.
Procedure: In vitro assays were performed to evaluate the metabolic stability of test items in liver microsomes originating from mouse. Preparation of working standards of test items: Working solutions were prepared for each calibration level by appropriate dilution of the corresponding stock solution, depending on each compound's solubility in acetonitrile or acetonitrile/water. Calibration standards were prepared by spiking 196 μl standard matrix with 4 μl of the corresponding working solution. The standard matrix consists of 0.15 mg/ml of microsomal protein in phosphate buffer (100 mM pH 7.4), the final standard solutions contain 2% acetonitrile. The samples and standard solutions were extracted with ethyl acetate, isolation of the compounds was performed by addition of 600 μl ethyl acetate containing the internal standard (0.1 μM) to 200 μl sample and calibration standard. After vigorously shaking (10 minutes) and centrifugation (5000 g) the aqueous phase was separated by freezing in an acetone/dry ice bath and the organic phase is evaporated to dryness using a vacuum centrifuge. Samples were reconstituted in 200 μl acetonitrile/water mix (1:1 v/v) and subsequently subjected to LC-MS/MS. The incubation solution (180 μl) consisted of 90 μl of a microsomal suspension of 0.33 mg/ml of protein in phosphate buffer 100 mM pH 7.4 and 90 μl NADP-regenerating system. The reaction was initiated by the addition of 20 μl of test compound (in 20% acetonitrile) to the preincubated microsomes/buffer mix at 37° C. 200 μl samples were removed from the incubation after 0, 5, 10, and 30 minutes and processed for ethyl acetate extraction as described above. Negative controls using boiled microsomes (boiling water bath, 25 minutes) without regenerating system were run in parallel. The amount of compound in the samples is expressed as percentage of remaining compound compared to time point zero (=100%). These percentages were plotted against the corresponding time points. Intrinsic clearance (CLint) and half-life (t1/2) estimates were determined using the rate of parent disappearance and following formula (1) and (2). (1) CLint=(−k)×V×fu. (2) t1/2=In2/−k. Where CLint=intrinsic clearance [μl/min/mg protein], t1/2=half life [min], k=slope from the linear regression of log [test compound] versus time plot [1/min]. V=6666.7; fu=unbound fraction in the blood. Applying this protocol gave microsomal stabilities for examples and reference compounds as listed below in Table 9: […]

[4] = The Merck index, 10th edition; cited from earlier work

solubility at 24 h ([1]; 23° C., 24 hours, read-out: Aqueous solubility pH 7.4) [µM]	solubility at 20 h [2] [µM]	PAMPA Permeability (PAMPA permeability assay) [%]	half-life [3] [min]	microsomal CLint [3] [µL/min/mg]	solubility at 24 h ([1]; 23 °C, at the day of experiment, read-out: Aqueous solubility (assay validation)) [µg/mL]	Compound	Aqueous solubility, reported literature value [4]
2 to 100	72.4 (≈ 35.9 µg/mL)	32	22	207		CC(C)c1onc(-c2c(Cl)cccc2Cl)c1CCc1ccc(Oc2ccc(C(=O)O)cc2)cc1 [Compound A, reference compound]	
					> 100	CC(=O)Oc1ccccc1C(=O)O [acetylsalicylic acid, reference compound]	at least 2,17 mg/ml
